The values that follow come from paper PMC10269895 (Microbiology Spectrum, 2023).

A short description of series [1]: Chemical stability in the presence of GSH. It is filed as physicochemical. Conditions: incubation for 168 h. The procedure: Based on a stock solution of 0.2 mg GE81112A in 1,548 μL methanol, three different samples were prepared in triplets (test mixture: 100 μL stock solution, 2 μL DMSO, and 1 μL DMSO containing 1.5 GSH equivalents; reference sample A: 200 μL stock solution; reference sample B: 200 μL stock solution and 2 μL DMSO). All samples were measured at three different time points (0 h, 24 h, and 168 h) on a MaXis II system (Bruker).

Series [2] is described as follows: Cellular permeability assay using the CaCo2/TC7 cell line. The class given is in vitro ADME, human. Conditions: human, Caco-2; 1 or 20 μM, apical-to-basolateral, 120 min, pH 7.4; read-out: Apparent permeability. The procedure:
(§1) CaCo2/TC7 cells were seeded in a Falcon 24-well multiwell insert system with 1.0-μm-pore high-density polyethylene terephthalate (PET) membrane plates, at a density of 60,000 cells per well in DMEM (high glucose, with Glutamax I, without HEPES, with 20% fetal calf serum [FCS], and with penicillin-streptomycin). The cells were incubated for at least 21 days to ensure complete differentiation, polarization, and formation of a tight barrier layer. Permeability assays were performed in Hanks’ balanced salt solution (HBSS) with sodium taurocholate (186 μM), HEPES (10 mM), and bovine serum albumin (BSA) (0.5% [wt/vol]), adjusted to pH 7.4 with sodium hydroxide (1 N). GE81112A at 1 and 20 μM was assayed for 120 min in the apical-to-basolateral direction with an apical pH of 7.4 and a basolateral pH of 7.4, without a BSA gradient (0.5%) on either side. After the incubation period, apical and basolateral concentrations of GE81112A were determined using liquid chromatography-tandem mass spectrometry (LC-MS/MS).
For orientation: Passage across Caco-2 layers is used to estimate intestinal permeability.

In a further series the test system is CaCo2/TC7 cells. The series is described as above. The conditions noted are these: predicted from CaCo2/TC7 permeability. It is filed as in vitro ADME, human. As to the method: as §1
The next series has as its target T1, CYP3A4 (Homo sapiens, UniProt P08684).
T1 construct: the reaction mixture was prepared with a human liver microsome concentration of 0.1 mg/mL; from tissue; host or cells: human liver microsomes
The experiment in a line: CYP inhibition IC50 shift assay in human liver microsomes. It is filed as in vitro ADME. The conditions noted are these: concentrations of up to 50 μM. As to the method: To examine the potential for time-dependent and direct competitive CYP3A4 inhibition, the reaction mixture was prepared with a human liver microsome concentration of 0.1 mg/mL. GE81112A was added to final concentrations of 50, 25, 10, 5, 2, 0.4, and 0.08 μM. Mixtures were brought to 37°C, with the addition of an NADPH-generating system (EDTA, 1 mM; MgCl2, 3 mM; β-NADPH, 1 mM; glucose 6-phosphate, 5 mM final concentration) in water to one set of reaction mixtures and water to a second set of reaction mixtures. The reaction mixtures were preincubated for 45 min. A CYP isoform-selective substrate (3 μM midazolam or 50 μM testosterone) was added to the reaction mixtures, and NADPH was added to the second set of reaction mixtures for an additional 10-min incubation period. The reactions were stopped by the addition of 200 μL internal standard solution in acetonitrile.
Both incubation plates (for midazolam and testosterone) were centrifuged at 3,000 rpm for 10 min. The samples were analyzed using LC-MS/MS. Parallel analysis of the CYP3A4 substrate midazolam and the CYP3A4 substrate testosterone was performed. The calculations of 50% inhibitory concentration (IC50) values and IC50 shift values were performed by using 4-paratemeter curve fitting.
On the technique in general: Liver microsomes are a subcellular fraction often used to study metabolism.

The nature of the next series: Plasma stability. Conditions: for Degradation: after 4 h. It is filed as in vitro ADME. The procedure:
For plasma clearance, peptides were dissolved as 1 mM stock solutions in sterile deionized water and incubated at 37°C in 500 μL plasma derived from different species (human, mouse, and rat) at a final concentration of 5 μM. At different time points (0, 1, and 4 h), 100-μL samples were transferred to 500 μL ethanol containing 0.5% (vol/vol) ammonia, and plasma proteins were precipitated for 20 min at 1,735 × g. Each 10-μL supernatant sample was separated on a Triart C18 column (1.9 μm, 20 by 2 mm; YMC, Kyoto, Japan) with an ascending acetonitrile gradient in water (supplemented with 0.1% formic acid), at a flow rate of 500 μL/min. Samples were analyzed in triplicate by LC-MS/MS as above, and the stability of the parent peptides was evaluated based on the comparison of blank samples with incubated samples.

Series [3] concerns G-protein-coupled receptors, ion channels, NET and DAT panel. Description: Pharmacological off-target profiling: in vitro binding assays (CEREP). Also noted: species or system human unless stated (rat). The conditions noted are these: 0.01 mM. The text has this: FIG 3 In vitro binding assays. Inhibitory effects of GE81112A were investigated for G-protein-coupled receptors for adenosine (A1 and A2A), […] (α1A, α2A, β1, and β2), cannabinoids (CB1 and CB2), dopamine (D1 and D2S), histamine (H1 and H2), acetylcholine (M1, M2, and M3), opioids (μ-MOP), and serotonin (5-HT1A, 5-HT2A, and 5-HT2B), the ion channels Gly (rat), nAChR (α4β2), nAChR (muscle type), PCP (rat), Cav1.2 (rat), Kv (rat), SKCa (rat), and GABACl (rat), NET (GenBank accession number P23975), and DAT (GenBank accession number Q01959).

A short description of series [4]: In vivo tolerability study in uninfected mice. More on the design: species or system Swiss mice. Conditions: 30 mg/kg single i.v. bolus in NaCl (0.9%). The procedure:
We first performed a tolerability study in uninfected mice by injecting GE81112A at up to 30 mg/kg, formulated in NaCl (0.9%), via intravenous (i.v.) bolus administration.
All animal studies were performed in accordance with relevant guidelines and regulations. A 30 mg/kg dose of GE81112A, formulated in 0.9% NaCl, was administered to noninfected Swiss mice (n = 3), using a single i.v. bolus. Adverse events and animal weights were monitored for 24 h after administration.

Series [5] concerns PDE3A, acetylcholinesterase, MAO-A, Na+/K+-ATPase. Conditions: 0.01 mM.
Experimental: The targets were human recombinant proteins unless a different species is stated. All tests were conducted at a peptide concentration of 0.01 mM according to CEREP procedures.
Pharmacological off-target profiling was conducted by CEREP (Celle-Le’vescault, France) to investigate inhibitory effects against the targets specified in Fig. 3 and 4. […] We selected 19 G-protein-coupled receptors (acetylcholine, adenosine, androgens, cannabinoids, dopamine, histamine, opioids, and serotonin), eight ion channels (Gly, nicotinic acetylcholine receptor [nAChR], phencyclidine [PCP], Cav1.2, Kv, SKCa, and γ-aminobutyric acid-gated chloride channels [GABACl]), two transporters (dopamine transporter [DAT] and noradrenaline transporter [NET]), and four enzymes (phosphodiesterase [PDE], acetylcholinesterase, monoamine oxidase (MAO), and Na^+/K^+-ATPase) for testing.

T1 sequence (P08684 whole entry): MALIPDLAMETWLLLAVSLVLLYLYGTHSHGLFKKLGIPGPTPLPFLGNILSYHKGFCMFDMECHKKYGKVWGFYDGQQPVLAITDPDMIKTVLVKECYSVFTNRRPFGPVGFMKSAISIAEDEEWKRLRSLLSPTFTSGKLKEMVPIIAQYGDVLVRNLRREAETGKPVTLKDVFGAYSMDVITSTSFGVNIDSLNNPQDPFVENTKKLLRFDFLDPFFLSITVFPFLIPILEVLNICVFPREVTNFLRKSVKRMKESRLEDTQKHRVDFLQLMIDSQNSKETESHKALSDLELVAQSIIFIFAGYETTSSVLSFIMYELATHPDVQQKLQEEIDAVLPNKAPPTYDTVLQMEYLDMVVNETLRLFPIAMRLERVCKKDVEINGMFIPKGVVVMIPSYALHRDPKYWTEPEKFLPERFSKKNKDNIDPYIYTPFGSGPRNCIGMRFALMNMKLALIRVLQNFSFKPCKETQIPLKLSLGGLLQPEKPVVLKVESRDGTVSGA

On to `NC(=O)OC[C@@H](O)C[C@H](NC(=O)[C@H]1NCCC[C@H]1O)C(=O)N[C@@H](Cc1c[nH]cn1)C(=O)N[C@H](C(=O)O)[C@H](O)c1cnc(Cl)[nH]1` [GE81112A], for which the “Stability in the presence of glutathione (GSH)” value in series [1] was “no degradation or formation of adducts”. In series [2], the Papp at 120 min lay within 0.028 to 0.316 ×10⁻⁶ cm/s. The “Absorption in the human intestine (predicted)” value in the series with CaCo2/TC7 cells is given as “low”. On CYP3A4, the “Direct competitive inhibition of CYPA4” value is on record as “not observed”. In addition, the “Time-dependent inhibition of CYPA4” value at CYP3A4 is “not observed”. In addition, the metabolised at 1 h, 1 μM in “Plasma stability” (human blood plasma, 37°C, 1 h, read-out: Hydrolysis) was 3%. Further, the metabolised at 4 h, 1 μM in the series “Plasma stability” (human blood plasma, 37°C, 4 h, read-out: Hydrolysis) was determined as 27%. Also, the Degradation entry in “Plasma stability” (mouse blood plasma) and in the series “Plasma stability” (rat blood plasma) was “No degradation” in each case. Besides, the “Off-target inhibitory effects, binding assays” value in series [3] is “no critical inhibiting effect”. The “Tolerability (signs of toxicity or adverse effects)” value in series [4] is “did not show any sign of toxicity or adverse effects”. Besides, the “Off-target inhibitory effects, enzyme and uptake assays” value in series [5] is on record as “no critical inhibiting effect”.
